From the supplement of paper PMC12613149

Key:
[1] = collision cross section (TIMS, N2 drift gas) of the primary ion; higher = larger gas-phase ion size
[2] = reversed-phase LC retention time (C18, 15 min MeOH gradient); higher = more hydrophobic / later elution
[3] = ionization mode: ESI+, ion species: [M+H]+
[4] = ionization mode: ESI-, ion species: [M-H]-

Structure (SMILES) | collision cross section [1, 3] [Å²] | reversed-phase LC retention time [2, 3] [min] | collision cross section [1, 4] [Å²] | reversed-phase LC retention time [2, 4] [min]
CC(C)(C)CC(C)(C)c1cc(-n2nc3ccccc3n2)c(O)c(C(C)(C)c2ccccc2)c1 [UV-928] | 220.23 | 20.4 | – | –
COCC(=O)Nc1c(I)c(C(=O)NCC(O)CO)c(I)c(C(=O)N(C)CC(O)CO)c1I (centres undefined) [Iopromide] | 215.51 | 6.66 | 212.29 | 6.74
CN(C)c1nc(=O)n(C2CCCCC2)c(=O)n1C | 163.21 | 11.7 | – | –
O=C1NC(=O)C2CC=CCC12 (centres undefined) [Tetrahydrophthalimide] | 130.01 | 5.38 | – | –
CC(C)(c1cc(Br)c(O)c(Br)c1)c1cc(Br)c(O)c(Br)c1 [Tetrabromobisphenol A] | – | – | 192.83 | 15.3
COc1nc(NC(=O)NS(=O)(=O)c2ccccc2C(F)(F)F)nc(C(F)(F)F)n1 [Tritosulfuron] | 186.88 | 13.7 | 184.96 | 11.8
COc1ccc(C(=O)c2ccccc2)c(O)c1 [Benzophenone-3] | 148.22 | 15.1 | – | –
Cc1ccc2[nH]nnc2c1 [5-Methyl-1H-benzotriazole] | 123.85 | 9.87 | – | –
CCC(C)(CC)c1cc(NC(=O)c2c(OC)cccc2OC)on1 [Isoxaben] | 186.76 | 14.3 | 186.45 | 14.7
CC1COc2c(N3CCN(C)CC3)c(F)cc3c(=O)c(C(=O)O)cn1c23 (centres undefined) [Ofloxacin] | 182.54 | 7.93 | – | –
O=C(NCc1ncc(C(F)(F)F)cc1Cl)c1c(Cl)cccc1Cl [Fluopicolide] | 176.08 | 14.4 | – | –
Cn1c(N)nc2ncc(-c3ccccc3)cc21 [2-Amino-1-methyl-6-phenylimidazo[4,5-b]pyridine (PhIP)] | 152.56 | 9.5 | 152.05 | 12.1
C[C@]12CC[C@@H]3c4ccc(O)cc4CC[C@H]3[C@@H]1CC[C@H]2O [17-alpha-Estradiol] | – | – | 173.91 | 14.5
COc1cc(C2c3cc4c(cc3C(OC3OC5COC(C)OC5C(O)C3O)C3COC(=O)C23)OCO4)cc(OC)c1O (centres undefined) [Etoposide] | 250.37 | 11.6 | – | –
NC1=NCCN1Cc1ccc(Cl)nc1 [Imidacloprid-guanidine] | 148.89 | 6.21 | – | –
CC(C)N1C(=O)c2cc(O)ccc2NS1(=O)=O [6-Hydroxybentazone] | – | – | 149.95 | 5.24

Structure (SMILES) | collision cross section [1, 3] [Å²] | reversed-phase LC retention time [2, 3] [min] | collision cross section [1, 4] [Å²] | reversed-phase LC retention time [2, 4] [min]
O=C(O)c1ccc(-c2ccccc2-c2nnn[nH]2)cc1 [Valsartan acid] | 161.62 | 11.2 | 162.3 | 6.27
C[C@]12CC[C@@H]3c4ccc(O)cc4CC[C@H]3[C@@H]1C[C@@H](O)[C@@H]2O [Estriol] | – | – | 176.65 | 11.4
CC#Cc1cc(C)nc(Nc2ccccc2)n1 [Mepanipyrim] | 152.51 | 14.6 | – | –
NS(=O)(=O)c1cc2c(cc1Cl)NCNS2(=O)=O [Hydrochlorothiazide] | – | – | 152.66 | 4.93
Cc1cccc(C)c1N(Cn1cccn1)C(=O)C(=O)O [Metazachlor OA] | – | – | 162.14 | 8.92
Oc1cc(Cl)ccc1Oc1ccc(Cl)cc1Cl [Triclosan] | – | – | 158.5 | 16.8
CCCCCCOC(=O)c1ccccc1C(=O)c1ccc(N(CC)CC)cc1O [Uvinul A Plus] | 209.29 | 17.4 | – | –
Cn1cnc2c1c(=O)n(CCCC(=O)O)c(=O)n2C [1-(3-carboxypropyl)-3,7-dimethylxanthine] | 154.67 | 8.35 | – | –
CN(Cc1cnc2nc(N)nc(N)c2n1)c1ccc(C(=O)N[C@@H](CCC(=O)O)C(=O)O)cc1 [Methotrexate] | 197.21 | 7.82 | – | –
C=CCOC(Cn1ccnc1)c1ccc(Cl)cc1Cl (centres undefined) [Imazalil] | 167.87 | 12.7 | – | –
O=C(NC(=O)c1c(F)cccc1F)Nc1ccc(Cl)cc1 [Diflubenzuron] | 163.34 | 15.1 | 167.93 | 15.5
O=P(Oc1ccccc1)(Oc1ccccc1)Oc1ccccc1 [Triphenylphosphate] | 172.48 | 15.7 | – | –
Cc1ccc(S(=O)(=O)O)c(C)c1 [m-Xylene-4-sulfonic acid] | – | – | 136.84 | 7.68
Cc1cccc(C)c1N(Cn1cccn1)C(=O)CCl [Metazachlor] | 159.2 | 12.9 | – | –
N#Cc1cc(Cl)c(O)c(Cl)c1 [Chloroxynil] | – | – | 125.1 | 6.76
